Results as given in US20190030114A1, “ISOFORM-SPECIFIC CALPAIN INHIBITORS, METHODS OF IDENTIFICATION, AND USES THEREOF” (WESTERN UNIVERSITY OF HEALTH SCIENCES, priority 2014, published 2019).

Tests used:
calpain-2 = biological target: T1, calpain-2 (Homo sapiens, UniProt P17655); settings: Li et al, 1996; read-out: Ki for calpain-2 (m-calpain), literature; cited from earlier work
T1 sequence (P17655 1-700): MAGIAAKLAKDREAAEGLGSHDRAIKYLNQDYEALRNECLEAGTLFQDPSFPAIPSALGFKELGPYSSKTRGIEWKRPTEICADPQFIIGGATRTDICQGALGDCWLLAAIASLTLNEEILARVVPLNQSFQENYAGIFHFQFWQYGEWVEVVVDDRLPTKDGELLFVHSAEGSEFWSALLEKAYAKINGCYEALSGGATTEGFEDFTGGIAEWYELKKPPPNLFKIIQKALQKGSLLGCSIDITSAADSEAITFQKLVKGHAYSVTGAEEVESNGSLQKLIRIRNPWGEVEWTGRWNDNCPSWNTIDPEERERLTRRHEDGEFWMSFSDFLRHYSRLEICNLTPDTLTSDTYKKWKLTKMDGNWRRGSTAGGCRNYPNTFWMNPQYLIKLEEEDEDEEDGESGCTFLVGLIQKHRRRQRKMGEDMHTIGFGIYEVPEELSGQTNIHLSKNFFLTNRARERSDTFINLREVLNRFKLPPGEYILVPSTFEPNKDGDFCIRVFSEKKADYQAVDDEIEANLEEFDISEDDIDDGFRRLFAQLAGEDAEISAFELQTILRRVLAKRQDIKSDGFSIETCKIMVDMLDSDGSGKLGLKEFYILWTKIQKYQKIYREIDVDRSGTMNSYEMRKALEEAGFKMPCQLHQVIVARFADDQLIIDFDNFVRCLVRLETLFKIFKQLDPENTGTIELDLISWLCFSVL
T1 sequence (P04632 1-268 partner): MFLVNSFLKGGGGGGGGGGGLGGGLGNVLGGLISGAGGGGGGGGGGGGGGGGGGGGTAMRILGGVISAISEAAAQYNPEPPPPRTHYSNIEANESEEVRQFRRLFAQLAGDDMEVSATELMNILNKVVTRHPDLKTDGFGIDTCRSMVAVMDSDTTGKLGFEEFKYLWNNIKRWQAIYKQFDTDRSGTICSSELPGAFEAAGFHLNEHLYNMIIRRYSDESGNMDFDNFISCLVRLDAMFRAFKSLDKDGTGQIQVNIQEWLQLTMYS

retina (GCL, IPL, RGC) = test: acute IOP elevation (acute angle closure glaucoma model), systemic (i.p.) C2l; format: in vivo, mice
Procedure: FIG. 11A: Calpain-2 inhibition reduces, while calpain-1 knockout exacerbates, cell death in the ganglion cell layer induced by acute IOP elevation. H&E staining of retinal sections from the right eye of vehicle- or C2l-injected wild-type and calpain-1 KO mice and the left eye where sham surgery was performed. Vehicle, 10% DMSO in PBS, was injected i.p. 30 min before and 2 h after acute IOP elevation. Pre- and post-injection C2l (0.3 mg/kg) was done i.p. 30 min before and 2 h after acute IOP elevation. For the One post injection group, C2l was injected 2 h after IOP elevation. For the Two post inj group, C2l was injected 2 and 4 h after IOP elevation. H&E staining was performed 3 days after surgery. Scale bar=30 μm.
Six sections cut through the optic disc of each eye were analyzed. Cell numbers in GCL at a distance between […] the optic disc were counted. Cell densities in 6 sections from each eye were averaged. Data represent means±S.E.M. n=7 for vehicle, n=3 for pre and post inj, n=10 for one post inj, n=6 for two post inj, n=4 for KO. ns, no significant difference. ***p<0.001, Two-tailed t-test.
FIG. 11C: Comparison of GCL cell survival rates from the right eye of vehicle- or C2l-injected wild-type and calpain-1 KO mice and the left eye where sham surgery was performed, as described in FIG. 11A. Survival rate for each mouse was calculated as the ratio of cell density in GCL of IOP-elevated eye to cell density in GCL of sham eye. *p<0.05, **p<0.01 versus vehicle, One-way ANOVA followed by Bonferroni test.
FIG. 11D: Brn-3a immunostaining in the retina of vehicle- or C2l-injected WT mice. Acute IOP elevation was performed on the right eye, while sham surgery was performed on the left eye. Vehicle, 10% DMSO, or C2l, C2l (0.3 mg/kg) was injected i.p. 2 h after acute IOP elevation. Brn3a staining was performed 3 days after surgery. Scale bar=60 μm.
FIG. 11E: Quantification of brn3a staining, as described in FIG. 11D. Brn3a-positive cells in GCL were counted. Data represents mean±S.E.M. n=4 for vehicle, n=5 for C2l. Ns, no significant difference, **p<0.01 sham versus IOP elevation, two-tailed t-test.
FIG. 11F: Comparison of survival rates. n=4 for vehicle, n=5 for C2l. **p<0.01 vehicle versus C2l, two-tailed t-test.
FIG. 11G: Representative immunoblots of PHLPP1 and STEP33 in retina tissue of WT, calpain-1 KO and C2l-injected mice collected 3 h after sham surgery or acute IOP elevation. C2l (0.3 mg/kg) was injected systemically 2 h after sham surgery or IOP elevation.
FIG. 11H: Quantitative analysis of the levels of PHLPP1 and STEP33 and ratios of pAkt/Akt for each group. Results represent means±S.E.M. of 4 experiments. *p<0.05, **p<0.01, ***p<0.001, ns no significant difference, One-way ANOVA followed by Bonferroni test.
Sequential activation of calpain-1 and calpain-2 in retina after acute IOP elevation. The following IOP elevation studies were performed using a model of acute angle closure glaucoma consisting of increasing intraocular pressure (IOP) to 110 mm Hg for 60 min by inserting a needle connected to an elevated reservoir of saline into the anterior chamber. This model reproduced several features of acute angle closure, including, ischemia of retina and iris as noted by absence of red reflex and pupillary response to light. Anterior chamber synechae, resulting in a narrow angle and adhesions between the iris and the cornea, increased cells and flare in the anterior chamber and increased corneal thickness due to corneal edema. Some of these changes persisted over 3 days of observation. Eyes were collected at 0, 2, 4 and 6 h after IOP elevation and retinal frozen sections were prepared and processed for immunohistochemistry with SBDP antibody. In WT mice, SBDP was clearly present in IPL at 2, 4 and 6 h after IOP elevation. However in calpain-1 KO mice, SBDP was only evident in the IPL at 4 and 6 h but not at 2 h (FIG. 10A and C). […]

[1] = 0.3 mg/kg i.p. 30 min before and 2 h after IOP elevation (pre and post inj), 3 days, n=3
[2] = i.p. 2 and 4 h after IOP elevation (two post inj), n=6
[3] = i.p. 2 h after IOP elevation (one post inj), n=10

## CCC(NC(=O)C(CC(C)C)NC(=O)OCc1ccccc1)C(=O)C(=O)NCc1cc(OC)cc(OC)c1 (racemic) [Formula 1, Z-Leu-Abu-CONH—CH2-C6H3 (3, 5-(OMe)2)]
calpain-2
  Ki: 22 nM
Retina (GCL, IPL, RGC); [1]
  cell counts in GCL, IOP-elevated eye: 105.8±4.5 cells/mm
  cell counts in GCL, sham eye: 125.1±10.5 cells/mm
Retina (GCL, IPL, RGC); 0.3 mg/kg i.p. 2 h after IOP elevation, WT mice
  SBDP signal in IPL at 4 and 6 h: significantly reduced
Retina (GCL, IPL, RGC); all three C2l injected groups
  cell survival rate (cell count in IOP-elevated eye to sham eye) versus vehicle: significantly increased
Retina (GCL, IPL, RGC); [2]
  cell counts in GCL, IOP-elevated eye: 96.1±6.3 cells/mm
  cell counts in GCL, sham eye: 118.6±3.7 cells/mm
Retina (GCL, IPL, RGC); [3]
  cell counts in GCL, IOP-elevated eye: 86.4±7.0 cells/mm
  cell counts in GCL, sham eye: 110.6±3.6 cells/mm
Retina (GCL, IPL, RGC); injected 2 h after IOP elevation, WT mice
  PTEN degradation at 4 and 6 h: completely blocked
